Earlier results, collected in article PMC7111628 (Antiviral Research, 2020).

What was measured:
[1] = system: HSV-1; details: Vero cells; ref Lyu et al., 2005; cited from earlier work
[2] = system: SARS-CoV helicase protein; details: cited from earlier work

Compound: O=c1c(O)c(-c2ccc(O)c(O)c2)oc2cc(O)cc(O)c12 [quercetinin, reference compound]
- inhibitory effects against HSV-1 [1]: moderate inhibitory effects

Compound: O=c1cc(-c2ccc(O)cc2)oc2cc(O)c(O)c(O)c12 [scutellarein, reference compound]
- inhibition of SARS-CoV helicase protein [2]: potently inhibited
